The values that follow come from US20150051206A1, “COMPOUNDS AND COMPOSITIONS AS C-KIT KINASE INHIBITORS” (IRM LLC, priority 2011, published 2015).

A value given as a limit tells only on which side of the number the result lay.

The target in one assay is T1, c-kit (Homo sapiens, UniProt P10721).
T1 construct: human Mo7e cells which endogenously express c-kit; endogenous in cells; host or cells: human Mo7e cells (promegakaryocytic leukemia line), stimulated with human recombinant SCF
T1 sequence (P10721 26-976): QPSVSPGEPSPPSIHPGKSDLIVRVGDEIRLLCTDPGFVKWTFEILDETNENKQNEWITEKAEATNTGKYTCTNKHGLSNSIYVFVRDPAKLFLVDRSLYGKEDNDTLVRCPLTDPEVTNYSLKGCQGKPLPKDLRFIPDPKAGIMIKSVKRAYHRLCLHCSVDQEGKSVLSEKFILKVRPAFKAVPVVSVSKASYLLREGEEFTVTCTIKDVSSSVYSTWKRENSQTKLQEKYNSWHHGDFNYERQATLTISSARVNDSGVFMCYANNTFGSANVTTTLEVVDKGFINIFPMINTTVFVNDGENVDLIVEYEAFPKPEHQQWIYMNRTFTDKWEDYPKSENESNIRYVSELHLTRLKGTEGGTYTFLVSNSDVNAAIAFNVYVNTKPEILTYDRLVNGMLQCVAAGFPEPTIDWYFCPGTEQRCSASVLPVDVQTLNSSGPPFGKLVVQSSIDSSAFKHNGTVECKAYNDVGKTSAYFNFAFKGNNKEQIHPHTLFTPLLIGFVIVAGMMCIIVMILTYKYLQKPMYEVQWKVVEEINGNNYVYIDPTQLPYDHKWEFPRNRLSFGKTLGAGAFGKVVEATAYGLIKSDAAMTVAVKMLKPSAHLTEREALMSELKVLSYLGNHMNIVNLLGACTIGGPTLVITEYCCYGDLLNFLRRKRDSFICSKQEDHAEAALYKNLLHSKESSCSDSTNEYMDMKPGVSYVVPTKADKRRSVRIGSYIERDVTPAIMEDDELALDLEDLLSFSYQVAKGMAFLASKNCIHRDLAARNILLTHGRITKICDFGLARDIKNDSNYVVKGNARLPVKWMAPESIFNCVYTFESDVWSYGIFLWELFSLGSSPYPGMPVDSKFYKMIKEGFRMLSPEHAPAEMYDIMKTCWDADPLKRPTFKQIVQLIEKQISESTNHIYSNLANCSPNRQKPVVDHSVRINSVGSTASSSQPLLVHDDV
The assay can be described thus: Mo7e cell proliferation assay (SCF dependent proliferation). It is filed as cell-based. To be noted: Table 1; Mo7e cells stimulated with human recombinant SCF, 48 hours; 1% FBS. As for the experimental part:
Compounds of Formula (I) and Formula (II) provided herein were assayed to measure their capacity to inhibit c-kit and PDGFR kinases using the appropriate assay described below: c-Kit inhibition was evaluated using the Mo7e cell proliferation assay, and PDGFR inhibition was evaluated using the Rat A10 cell proliferation assay and the Human TG/HA-VSMC cell proliferation assay.
The compounds of Table 1 and Table 2 were tested for inhibition of SCF dependent proliferation using human Mo7e cells which endogenously express c-kit in a 384 well format. […] After 48 hours of incubation at 37° C., cell viability was measured by adding 25 uL of CellTiter Glo (Promega) to the cells and the luminescence was measured by a CLIPR CCD camera (Molecular Devices).
The IC50 value is given as that concentration of the test compound in question that provoke a response halfway between the baseline and maximum responses.
As for `Cc1nc(C(F)(F)F)c(-c2nc(-c3ccc(C)c(NC(=O)c4cnc5ccccn45)c3)no2)s1` [F23, N-(2-methyl-5-{5-[2-methyl-4-(trifluoromethyl)-1,3-thiazol-5-yl]-1,2,4-oxadiazol-3-yl}phenyl)imidazo[1,2-a]pyridine-3-carboxamide], the half-maximal inhibitory concentration (IC50) stood at 61 nM.

As to `Cc1ccc(Nc2noc(-c3cnccn3)n2)cc1NC(=O)c1cnc2ccccn12` [F18, N-(2-methyl-5-{[5-(pyrazin-2-yl)-1,2,4-oxadiazol-3-yl]amino}phenyl)imidazo[1,2-a]pyridine-3-carboxamide], the IC50 is 9 nM.

Regarding `Cc1ccc(-c2nc(Cc3ccccc3F)no2)cc1NC(=O)c1cnc2ccccn12` [F9, N-(5-{3-[(2-fluorophenyl)methyl]-1,2,4-oxadiazol-5-yl}-2-methylphenyl)imidazo[1,2-a]pyridine-3-carboxamide], the IC50 came to 9 nM.

As to `Cc1ccc(-c2nc(-c3cccc(OC(F)(F)F)c3)no2)cc1NC(=O)c1cnc2ccccn12` [F6, N-(2-methyl-5-{3-[3-(trifluoromethoxy)phenyl]-1,2,4-oxadiazol-5-yl}phenyl)imidazo[1,2-a]pyridine-3-carboxamide], the concentration for half-maximal inhibition (IC50) worked out at 89 nM.

Take `Cc1ccc(Nc2noc(-c3cccc(N4CCOCC4)c3)n2)cc1NC(=O)c1cnc2ccccn12` [F14, N-[2-methyl-5-({5-[3-(morpholin-4-yl)phenyl]-1,2,4-oxadiazol-3-yl}amino)phenyl]imidazo[1,2-a]pyridine-3-carboxamide]: the IC50 was 29 nM.

In the case of `Cc1ccc(Nc2noc(-c3cccc(N4CCN(C)CC4)c3)n2)cc1NC(=O)c1cnc2ccccn12` [F13, N-[2-methyl-5-({5-[3-(4-methylpiperazin-1-yl)phenyl]-1,2,4-oxadiazol-3-yl}amino)phenyl]imidazo[1,2-a]pyridine-3-carboxamide], the concentration for half-maximal inhibition (IC50) was 71 nM.

Take `Cc1ccc(Nc2noc(-c3ccccn3)n2)cc1NC(=O)c1cnc2ccccn12` [F21, N-(2-methyl-5-{[5-(pyridin-2-yl)-1,2,4-oxadiazol-3-yl]amino}phenyl)imidazo[1,2-a]pyridine-3-carboxamide]: the IC50 is 8 nM.

Consider `Cc1ccc(Nc2noc(-c3ccnc(N4CCOCC4)c3)n2)cc1NC(=O)c1cnc2ccccn12` [F12, N-[2-methyl-5-({5-[2-(morpholin-4-yl)pyridin-4-yl]-1,2,4-oxadiazol-3-yl}amino)phenyl]imidazo[1,2-a]pyridine-3-carboxamide], for which the IC50 turned out to be 40 nM.

Take `Cc1ccc(Nc2noc(-c3nccn3C)n2)cc1NC(=O)c1cnc2ccccn12` [F16, N-(2-methyl-5-{[5-(1-methyl-1H-imidazol-2-yl)-1,2,4-oxadiazol-3-yl]amino}phenyl)imidazo[1,2-a]pyridine-3-carboxamide]: the IC50 was found to be 27 nM.

With `Cc1ccc(-c2nc(-c3cccc(C(F)(F)F)c3)no2)cc1NC(=O)c1cnc2ccccn12` [F7, N-(2-methyl-5-{3-[3-(trifluoromethyl)phenyl]-1,2,4-oxadiazol-5-yl}phenyl)imidazo[1,2-a]pyridine-3-carboxamide], the concentration for half-maximal inhibition (IC50) came out at 69 nM.

As to `Cc1ccc(-c2nc(Nc3ccc(C)c(NC(=O)c4cnc5ccccn45)c3)no2)cn1` [F17, N-(2-methyl-5-{[5-(6-methylpyridin-3-yl)-1,2,4-oxadiazol-3-yl]amino}phenyl)imidazo[1,2-a]pyridine-3-carboxamide], the IC50 amounted to 2 nM.

Still in this assay, the particulars now being: Table 1; Mo7e cells stimulated with human recombinant SCF, 48 hours; 20% FBS (values marked *).
As to `Cc1ccc(-c2nc(Cc3ccccc3)no2)cc1NC(=O)c1cnc2ccccn12` [F3, N-[5-(3-benzyl-1,2,4-oxadiazol-5-yl)-2-methylphenyl]imidazo[1,2-a]pyridine-3-carboxamide], the half-maximal inhibitory concentration (IC50) is 65 nM.

In the case of `CCOc1cccc(-c2noc(-c3ccc(C)c(NC(=O)c4cnc5ccccn45)c3)n2)c1` [F8, N-{5-[3-(3-ethoxyphenyl)-1,2,4-oxadiazol-5-yl]-2-methylphenyl}imidazo[1,2-a]pyridine-3-carboxamide], the concentration for half-maximal inhibition (IC50) turned out to be 66 nM.

As to `Cc1ccc(-c2nc(-c3ccc4c(c3)CCO4)no2)cc1NC(=O)c1cnc2ccccn12` [F5, N-{5-[3-(2,3-dihydro-1-benzofuran-5-yl)-1,2,4-oxadiazol-5-yl]-2-methylphenyl}imidazo[1,2-a]pyridine-3-carboxamide], the IC50 was 73 nM.

The assay is the same for the next values; noted with them: Table 2; Mo7e cells stimulated with human recombinant SCF, 48 hours; 1% FBS.
With `Cc1ccc(-c2nc(-c3ccncc3)no2)cc1NC(=O)c1cnc2ccccn12` [F70], the IC50 is more than 10000 nM.

With `Cc1ccc(-c2noc(-c3ccccc3N3CCN(C)CC3)n2)cc1NC(=O)c1cnc2ccccn12` [F52, N-(2-methyl-5-{5-[2-(4-methylpiperazin-1-yl)phenyl]-1,2,4-oxadiazol-3-yl}phenyl)imidazo[1,2-a]pyridine-3-carboxamide], the half-inhibitory concentration (IC50) stood at 433 nM.

As to `COc1cccc(F)c1-c1noc(-c2ccc(C)c(NC(=O)c3cnc4ccccn34)c2)n1` [F40, N-{5-[3-(2-fluoro-6-methoxyphenyl)-1,2,4-oxadiazol-5-yl]-2-methylphenyl}imidazo[1,2-a]pyridine-3-carboxamide], the IC50 came to 596 nM.

Consider `Cc1ccc(-c2nc(-c3ccccc3)no2)cc1NC(=O)c1cnc2ccccn12` [F46, N-[2-methyl-5-(3-phenyl-1,2,4-oxadiazol-5-yl)phenyl]imidazo[1,2-a]pyridine-3-carboxamide], for which the half-inhibitory concentration (IC50) turned out to be 101 nM.

As to `Cc1ccc(-c2nc(-c3ccc(C(F)(F)F)cc3)no2)cc1NC(=O)c1cnc2ccccn12` [F31, N-(2-methyl-5-{3-[4-(trifluoromethyl)phenyl]-1,2,4-oxadiazol-5-yl}phenyl)imidazo[1,2-a]pyridine-3-carboxamide], the IC50 came to 1040 nM.

As for `Cc1ccc(-c2noc(Cn3ccnc3C)n2)cc1NC(=O)c1cnc2ccccn12` [F60, N-(2-methyl-5-{5-[(2-methyl-1H-imidazol-1-yl)methyl]-1,2,4-oxadiazol-3-yl}phenyl)imidazo[1,2-a]pyridine-3-carboxamide], the IC50 was 445 nM.

`Cc1ccc(-c2noc(Cn3ccnc3)n2)cc1NC(=O)c1cnc2ccccn12` [F61, N-{5-[5-(1H-imidazol-1-ylmethyl)-1,2,4-oxadiazol-3-yl]-2-methylphenyl}imidazo[1,2-a]pyridine-3-carboxamide]: the IC50 stood at 280 nM.

Consider `Cc1ccc(Nc2noc(-c3cccnn3)n2)cc1NC(=O)c1cnc2ccccn12` [F64, N-(2-methyl-5-{[5-(pyridazin-3-yl)-1,2,4-oxadiazol-3-yl]amino}phenyl)imidazo[1,2-a]pyridine-3-carboxamide], for which the half-maximal inhibitory concentration (IC50) is 115 nM.

With `Cc1ccc(-c2nc(-c3cccnc3)no2)cc1NC(=O)c1cnc2ccccn12` [F71], the IC50 was more than 10000 nM.

On to `Cc1ccc(-c2nc(-c3ccccn3)no2)cc1NC(=O)c1cnc2ccccn12` [F24, N-(2-methyl-5-(3-(pyridin-2-yl)-1,2,4-oxadiazol-5-yl)phenyl)imidazo[1,2-a]pyridine-3-carboxamide], for which the IC50 worked out at 137 nM.

As for `Cc1ccc(-c2noc(Cn3cnnn3)n2)cc1NC(=O)c1cnc2ccccn12` [F59, N-{2-methyl-5-[5-(1H-1,2,3,4-tetrazol-1-ylmethyl)-1,2,4-oxadiazol-3-yl]phenyl}imidazo[1,2-a]pyridine-3-carboxamide], the IC50 was 646 nM.

Staying with this assay, now noted: Table 2; Mo7e cells stimulated with human recombinant SCF, 48 hours; 20% FBS instead of 1% FBS (values marked *).
As for `Cc1ccc(-c2nc(-c3ccc(C)c(NC(=O)c4cnc5ccccn45)c3)no2)cn1` [F50, N-{2-methyl-5-[5-(6-methylpyridin-3-yl)-1,2,4-oxadiazol-3-yl]phenyl}imidazo[1,2-a]pyridine-3-carboxamide], the 50% inhibitory concentration (IC50) is 850 nM.

Regarding `Cc1ccc(-c2nc(-c3ncccc3F)no2)cc1NC(=O)c1cnc2ccccn12` [F29, N-{5-[3-(3-fluoropyridin-2-yl)-1,2,4-oxadiazol-5-yl]-2-methylphenyl}imidazo[1,2-a]pyridine-3-carboxamide], the IC50 was determined as 205 nM.

Consider `Cc1ccc(-c2nc(-c3cnccn3)no2)cc1NC(=O)c1cnc2ccccn12` [F25, N-{2-methyl-5-[3-(pyrazin-2-yl)-1,2,4-oxadiazol-5-yl]phenyl}imidazo[1,2-a]pyridine-3-carboxamide], for which the IC50 came out at 424 nM.

On to `Cc1ccc(-c2nc(-c3ccc(C(F)(F)F)cn3)no2)cc1NC(=O)c1cnc2ccccn12` [F30, N-(2-methyl-5-{3-[5-(trifluoromethyl)pyridin-2-yl]-1,2,4-oxadiazol-5-yl}phenyl)imidazo[1,2-a]pyridine-3-carboxamide], for which the IC50 was found to be 359 nM.

As to `Cc1ccc(-c2noc(-c3ccccc3N3CCOCC3)n2)cc1NC(=O)c1cnc2ccccn12` [F51, N-(2-methyl-5-{5-[2-(morpholin-4-yl)phenyl]-1,2,4-oxadiazol-3-yl}phenyl)imidazo[1,2-a]pyridine-3-carboxamide], the concentration for half-maximal inhibition (IC50) came out at 179 nM.

Turning to `Cc1ccc(-c2nc(Cc3ccccc3OC(F)(F)F)no2)cc1NC(=O)c1cnc2ccccn12` [F43, N-[2-methyl-5-(3-{[2-(trifluoromethoxy)phenyl]methyl}-1,2,4-oxadiazol-5-yl)phenyl]imidazo[1,2-a]pyridine-3-carboxamide], the IC50 stood at 289 nM.

Take `Cc1ccc(-c2nc(-c3cccnc3OCC(F)(F)F)no2)cc1NC(=O)c1cnc2ccccn12` [F38, N-(2-methyl-5-{3-[2-(2,2,2-trifluoroethoxy)pyridin-3-yl]-1,2,4-oxadiazol-5-yl}phenyl)imidazo[1,2-a]pyridine-3-carboxamide]: the half-inhibitory concentration (IC50) was determined as 192 nM.

Regarding `Cc1ccc(-c2nc(-c3ccc(Cl)cc3)no2)cc1NC(=O)c1cnc2ccccn12` [F27, N-{5-[3-(4-chlorophenyl)-1,2,4-oxadiazol-5-yl]-2-methylphenyl}imidazo[1,2-a]pyridine-3-carboxamide], the 50% inhibitory concentration (IC50) turned out to be 274 nM.

The term IC50 denotes the concentration needed to halve the response being measured.
